Data set [1] concerns RAW264.7. In words: Antiinflammatory activity against LPS-stimulated mouse RAW264.7 cells assessed as downregulation of NO levels by ELISA. The class given is functional, cell-based.
Data set [2] relates to RAW264.7. Nature of the data set: Antiinflammatory activity against LPS-stimulated mouse RAW264.7 cells assessed as downregulation of PGE2 levels by ELISA. The format is functional, cell-based. In general terms: An ELISA detects its analyte on a solid surface through an enzyme-linked reagent.
Data set [3] concerns RAW264.7. In words: Cytotoxicity against mouse RAW264.7 cells assessed as reduction in cell viability at 50 umol/L after 24 hrs by MTT assay. Particulars: raw264.7, 24 h, 50 µM. The class given is cell-based. In general terms: Formazan colour is commonly taken as a measure of viable cells.
In data set [4] the test system is RAW264.7. In words: Antiinflammatory activity against LPS-stimulated mouse RAW264.7 cells assessed as downregulation of iNOS levels by ELISA. The class given is functional, cell-based.
The nature of data set [5]: Inhibition of NFkappaB signaling pathway in LPS-stimulated mouse RAW264.7 cells by ELISA. The format is cell-based.
The test system of data set [6] is RAW264.7. In words: Cytotoxicity against LPS-stimulated mouse RAW264.7 cells assessed as reduction in cell viability at 50 umol/L after 24 hrs by MTT assay. The format is cell-based. To be noted: raw264.7, 24 h, 50 µM.
Data set [7] has as its system RAW264.7. In words: Antiinflammatory activity against LPS-stimulated mouse RAW264.7 cells assessed as downregulation of COX2 levels by ELISA. The format is functional, cell-based.

Take `COc1c(O)cc2c(c1O)[C@@H]1O[C@H](CO)[C@@H](O)[C@H](O)[C@H]1OC2=O` [BERGENIN]: the Activity result in data set [1] was “Dose-dependent effect”; in data set [2] it was “Dose-dependent effect”; in data set [3] it was “Non-toxic”; in data set [4], “Dose-dependent effect”; in data set [6], “Non-toxic”; in data set [7], “Dose-dependent effect”. In addition, the inhibition entry in data set [5] was “Dose-dependent effect”.

With `O=C1O[C@@H]2[C@@H](O)[C@H](O)[C@@H](CO)O[C@H]2c2c1cc(O)c(O)c2O`, the Activity entry is “Dose-dependent effect” in data set [1]; “Dose-dependent effect” in data set [2]; “Non-toxic” in data set [3]; “Dose-dependent effect” in data set [4]; “Non-toxic” in data set [6]; “Dose-dependent effect” in data set [7]. The inhibition result in data set [5] is “Dose-dependent effect”.

In the case of `COc1c(O)cc2c(c1O)[C@@H]1O[C@H](CO[C@H]3O[C@H](CO)[C@H](O)[C@H](O)[C@H]3O)[C@@H](O)[C@H](O)[C@H]1OC2=O`, the Activity result in data set [1] is “Dose-dependent effect”; in data set [2] it was “Dose-dependent effect”; in data set [3], “Non-toxic”; in data set [4], “Dose-dependent effect”; in data set [6] it was “Non-toxic”; in data set [7] it was “Dose-dependent effect”. Moreover, in data set [5], the inhibition result is “Dose-dependent effect”.

On to `COc1c(O)cc2c(c1O)[C@@H]1O[C@H](COC(=O)c3cc(O)c(O)c(O)c3)[C@@H](O)[C@H](O)[C@H]1OC2=O`, for which the Activity result in data set [1] is “Dose-dependent effect”; in data set [2], “Dose-dependent effect”; in data set [3], “Non-toxic”; in data set [4] it was “Dose-dependent effect”; in data set [6], “Non-toxic”; in data set [7] it was “Dose-dependent effect”. Also, the inhibition result in data set [5] is “Dose-dependent effect”.

The values above are taken from ChEMBL document CHEMBL3822374, “Anti-inflammatory polyphenol constituents derived from Cissus pteroclada Hayata” (Bioorg Med Chem Lett, 2016).
